Data published in US6235791A, “Use of amines to produce drugs for preventing tumor cell proliferation” (Sanofi-Synthelabo, priority 1996, dated 2001).

Columns and labels:
[1] = test system: human myeloma U266; assay: MTT colorimetric proliferation test, 5 days; format: cell-based; settings: U-266, 120 h, read-out: percentage of cell proliferation relative to the untreated control taken as 100%
Description: (§1) Among other cells used, the following lines were routinely cultured in RPMI medium supplemented with 10% foetal calf serum (FCS):
(§2) The antitumour activity is measured according to the colorimetry method using MTT, 3-(4,5-dimethylthiazole-2,5-diphenyltetrazolium) bromide as described by Mosmann T., Journ. of Im. Methods; 1983, 65, 55.
(§3) This colorimetric assay makes it possible to measure quantitatively the antitumour activity of a solution containing a compound used according to the invention.
(§4) According to the procedure used, the suspended cells (such as the myeloma cells) are inoculated at 2×10^3 cells/ml in 1 ml wells in defined medium. The adherent cells (such as the MCF-7 cells) are inoculated at 5×10^4 cells/ml in 1 ml wells in RPMI medium+0.5% FCS overnight. The next day, the cell carpet is washed twice and replaced by the defined medium.
(§5) The defined medium corresponds to: RPMI+10 μg/ml insulin+10 μg/ml human transferrin.
(§6) In order to carry out this test, cells are maintained in the presence of the solution containing a compound used according to the invention for 5 days, and the MTT is then added to the culture medium.
(§7) The 5 day period which was selected corresponds to the optimum time for the activity. After culturing for 5 days, the proliferation of the cells is measured by the test described above. The optical density at 570 nm is measured. A blue coloration develops in the wells where the cells are still alive. The intensity of the coloration is proportional to the quantity of live cells.

[2] = test system: human myeloma RPMI 8226; assay: MTT colorimetric proliferation test, 5 days; format: cell-based; settings: 120 h, read-out: percentage of cell proliferation relative to the untreated control taken as 100%
Description: as §1, §2, §3, §4, §5, §6, §7

[3] = test system: MCF7 AZTD5; assay: proliferation of mammary epithelial cells, IC50 after 6 days; format: cell-based; settings: Homo sapiens, MCF7, 144 h, 6 days of treatment
Description: (§8) Another study was also performed in order to determine the effect of SR 31747 on the in vitro and in vivo growth of mammary and prostate epithelial tumour cells.
(§9) The study consisted in evaluating the potential antitumour activity of SR 31747 on the growth of a variety of cancerous breast epithelial lines. The study is carried out in vitro on cell cultures, as well as in vivo after inoculation of tumoral mammary lines in "nude" athymic mice.
(§10) The cell lines which were used are as follows:
(§11) The hormone-sensitive MCF-7 line originates from a pleural effusion of a breast adenocarcinoma. The antioestrogen-resistant MCF-7LY2 cells were obtained from the MCF-7LCC1 and MCF-7LCC2 lines were developed in nude mice, after inoculation of the MCF-7 cells. The two lines are oestrogen-independent. The MCF-7CC2 cells are also antioestrogen-resistant. The MCF-7AZTD5 line is derived from the MCF-7 line after stable transfection with the H-ras oncogene. The MCF-7AZTD5 cells are antioestrogen-resistant in vitro. All of these lines are maintained on DMEM/F12 (1/1, vol/vol) containing 10% decomplemented foetal calf serum and 16 ng/ml of human insulin. The MCF-7LCC2 line is cultured in the permanent presence of 10^-7 M hydroxytamoxifen. The MDA-MB231 tumoral mammary epithelial cells are oestrogen- and antioestrogen-insensitive. They are cultured in L15 medium supplemented with 10% FCS, 1% essential amino acids and 10 μg/ml of human insulin.
(§12) All the lines are maintained at 37° C. in a humid air/CO2 (95%/5%) atmosphere, except for the MDA-MB231 cells which are cultured in the absence of CO2. THe cell lines are checked regularly free of mycoplasms.
(§13) Table B--Effect of SR 31747 on the proliferation of mammary epithelial cells. Determination of the IC50 after 6 days of treatment--medium changed every 48 hours

[4] = test system: LCC1 p23-24 (MCF-7LCC1); assay: as above; format: cell-based; settings: Homo sapiens, Epithelial cell, 144 h, 6 days of treatment
Description: as §8, §9, §10, §11, §12, §13

[5] = test system: MCF7 p23-25; assay: as above; format: cell-based; settings: Homo sapiens, MCF7, 144 h, 6 days of treatment
Description: as §8, §9, §10, §11, §12, §13

[6] = test system: MCF7 RPMI p6-7; assay: as above; format: cell-based; settings: Homo sapiens, MCF7, 144 h, 6 days of treatment
Description: as §8, §9, §10, §11, §12, §13

[7] = test system: MDA MB231 p131; assay: as above; format: cell-based; settings: 6 days of treatment
Description: as §8, §9, §10, §11, §12, §13

[8] = test system: MCF7 22HTB RPMI p + 4; assay: as above; format: cell-based; settings: Homo sapiens, 144 h; MCF7 22HTB RPMI p + 4, 0.1% FCS, 6 days of treatment
Description: as §8, §9, §10, §11, §12, §13

[9] = test system: MCF7 AZ; assay: as above; format: cell-based; settings: Homo sapiens, 144 h, 10% FCS, 6 days of treatment
Description: as §8, §9, §10, §11, §12, §13

[10] = test system: MCF7 + E2 10-9M; assay: proliferation of mammary epithelial cells, IC50 after 6 days, with oestradiol; format: cell-based, human; settings: for IC50: MCF7 + E2 10^-9M, 0.5% FCS, 6 days of treatment
Description: as §8, §9, §10, §11, §12, §13

`CCN(C/C=C\c1ccc(C2CCCCC2)c(Cl)c1)C1CCCCC1` [SR 31747, cis-N-Cyclohexyl-N-ethyl [3-(3-chloro-4-cyclo-hexylphenyl)allyl]amine] gave an activity at 10 pM ([1]; U266, 10 pM) of 100%, an activity at 0.0001 µM ([1]; U266, 100 pM) of 100% and an activity at 0.001 µM ([1]; U266, 1 nM) of 95%. It also gave an activity at 0.01 µM ([1]; U266, 10 nM) of 82%, an activity at 0.1 µM ([1]; U266, 100 nM) of 67% and an activity at 1 µM ([1]; U266, 1 μM) of 52%. The activity at 10 µM ([1]; U266, 10 μM) was 11%, the activity at 10 pM ([2]; RPMI 8226, 10 pM) was 100% and the activity at 0.0001 µM ([2]; RPMI 8226, 100 pM) was 91%. For the same compound, the activity at 0.001 µM ([2]; RPMI 8226, 1 nM) was 79%, the activity at 0.01 µM ([2]; RPMI 8226, 10 nM) was 66% and the activity at 0.1 µM ([2]; RPMI 8226, 100 nM) was 54%. The activity at 1 µM ([2]; RPMI 8226, 1 μM) was 9%, the activity at 10 µM ([2]; RPMI 8226, 10 μM) was 6% and the IC50 ([3]; MCF7 AZTD5, 0.1% FCS) was 0.2 nM. For the same compound, the IC50 ([3]; MCF7 AZTD5, 10% FCS) was 600 nM, the IC50 ([4]; LCC1 p23-24, 0.1% FCS) was 2 nM and the IC50 ([4]; LCC1 p23-24, 5% FCS) was 1000 nM. It also gave an IC50 ([5]; MCF7 p23-25, 0.1% FCS) of 2 nM, an IC50 ([5]; MCF7 p23-25, 0.5% FCS) of 100 nM and an IC50 ([6]; MCF7 RPMI p6-7, 0% FCS) of 3 nM. The IC50 ([6]; MCF7 RPMI p6-7, 0.1% FCS) was 7 nM, the IC50 ([7]; Homo sapiens, MDA-MB-231, 144 h, MDA MB231 p131, 0.1% FCS) was 2 nM and the IC50 ([7]; Homo sapiens, MDA-MB-231, 144 h, MDA MB231 p131, 10% FCS) was 800 nM. The IC50 ([7]; MDA MB231 p131, 10% FCS) was 400 nM, the IC50 [8] was 2 nM and the IC50 [9] was > 1000 nM. For the same compound, the IC50 ([10]; Homo sapiens, MCF7, 144 h) was 400 nM, the IC50 [10] was 300 nM and the “reversal of the stimulatory action of oestradiol” value ([10]; hormone-sensitive MCF-7 line) was “incapable of reversing the stimulatory action of oestradiol”.
